In data set [1] the test system is cardiomyocytic cell line derived from human ventricular heart tissue. Nature of the data set: Cell viability in cardiomyocyte compound screen (CellTiter-Glo). The class given is cell-based.
Data set [2] has as its system neuronal cell line derived from human neuroblastoma.
For data set [3] the test system is unchanged. Nature of the data set: Small molecule compound screen of gigasome production in neuronal monocultures. The note with it: for Fold Change of Gigasomes Produced vs. DMSO / Number of Gigasomes Produced: neuronal cells, 24 hours.
The test system of data set [4] is cardiomyocytic cell line derived from human ventricular heart tissue. Nature of the data set: Small molecule compound screen of gigasome production in cardiomyocytic monocultures.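 As to all read-outs here: gigasomes shed into the culture medium were imaged by confocal microscopy and counted as round particles lacking nuclear signal, extrapolated to the whole well, fold change is relative to DMSO vehicle.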 The conditions noted are these: for Fold Change of Gigasomes Produced vs. DMSO / Number of Gigasomes Produced: cardiomyocytes.
Where [5] appears, read: Table 22, dose 100 nM, cardiomyocytes, 24 hours.
Setting [6] is: neuronal cells, dose 10 nM, 24 hours.
Setting [7] is: neuronal cells, dose 100 nM, 24 hours.
The mark [8] stands for this setting: neuronal cells, dose 1000 nM, 24 hours.
The mark [9] stands for this setting: neuronal cells, dose 10000 nM, 24 hours.
[10] abbreviates: Table 22, dose 100 nM, 24 hours.
Setting [11] is: Table 22, dose 1000 nM, 24 hours.
Setting [12] is: Table 22, dose 10000 nM, 24 hours.
Where [13] appears, read: Homo sapiens, 24 h, read-out: Fold Change of Gigasomes Produced vs. DMSO.
[14] abbreviates: Homo sapiens, Cardiomyocyte, 24 h, read-out: Fold Change of Gigasomes Produced vs. DMSO.

The source of these data is patent US20240400986A1, “MEMBRANE BOUND COMPOSITIONS AND METHODS RELATING TO SAME” (FLAGSHIP PIONEERING INNOVATIONS VII, LLC, priority 2021, published 2024).

Read-outs that look alike come from different tables or passages of the source.

Turning to `CO/C1=C\C(C)=C\[C@@H](C)[C@@H](O)[C@@H](C)C/C(C)=C/C=C/[C@H](OC)[C@@H]([C@@H](C)[C@@H](O)[C@H](C)[C@@]2(O)C[C@@H](O)[C@H](C)[C@@H](C(C)C)O2)OC1=O` [Bafilomycin A1, reference compound], the Viability in data set [1] (setting [5]) was above 75%; in data set [1] (Table 22, dose 1000 nM, cardiomyocytes, 24 hours), above 75%; in data set [1] (Table 22, dose 10000 nM, cardiomyocytes, 24 hours), above 75%; in data set [2] (setting [6]), above 75%; in data set [2] (setting [7]), 100%; in data set [2] (setting [8]) it was above 75%. This molecule also registered a Viability in data set [2] (setting [9]) above 75%. Further, the “Fold Change of Gigasomes Produced vs. DMSO” value (from here on “Fold Change”) in data set [3] (dose 10 nM) is 1.75-2.0; in data set [3] (dose 100 nM) it was 2.0-3.0; in data set [3] (dose 1000 nM), 2.0-3.0; in data set [3] (dose 10000 nM), 3.0-4.0; in data set [4] (setting [10]) it was 1.5-1.75; in data set [4] (setting [11]), 1.75-2.0. Besides, the “Fold Change” value in data set [4] (setting [12]) is on record as 1.75-2.0. The “Number of Gigasomes Produced” value in data set [3] (dose 10 nM) is on record as 85-95; in data set [3] (dose 100 nM) it was 105-115; in data set [3] (dose 1000 nM), above 115; in data set [3] (dose 10000 nM), above 115; in data set [4] (setting [10]), 225-250; in data set [4] (setting [11]), 250-275. Also, in data set [4] (setting [12]), the “Number of Gigasomes Produced” value is 250-275.

As to `C=C(C)[C@@H]1CC[C@]2(CO)CC[C@]3(C)[C@H](CC[C@@H]4[C@@]5(C)CC[C@H](O)C(C)(C)[C@@H]5CC[C@]43C)[C@@H]12` [Betulin], the Viability in data set [1] (setting [5]), in data set [2] (setting [6]) and in data set [2] (setting [9]) was 100% in each case. In addition, the fold induction at 0.01 µM in data set [3] (setting [13]) was in the range of 1.25 to 1.5. For the same molecule, in data set [3] (setting [13]), the fold induction at 10 µM was in the range of 1 to 1.25. Besides, the “Number of Gigasomes Produced” value in data set [3] (dose 10 nM) is 45-55; in data set [3] (dose 10000 nM), 35-45; in data set [4] (setting [10]), 175-200. The fold induction at 0.1 µM in data set [4] (setting [14]) is 1.5 to 1.75.

Turning to `C[C@H]1CCC/C=C/[C@@H]2C[C@H](O)C[C@H]2[C@H](O)/C=C/C(=O)O1` [Brefeldin A], the Viability is recorded as above 75% in data set [1] (Table 22, dose 10 nM, cardiomyocytes, 24 hours) and 100% in data set [2] (setting [6]). The “Fold Change” value was 1.5-1.75 in data set [3] (dose 10 nM) and 1.25-1.5 in data set [4] (Table 22, dose 10 nM, 24 hours). In addition, the “Number of Gigasomes Produced” value in data set [3] (dose 10 nM) is given as 45-55; in data set [4] (Table 22, dose 10 nM, 24 hours), 250-275.

In the case of `Cn1cnc(N)c2ncnc1-2` [Compound 3-Methyladenine, 3-Methyladenine], the Viability is recorded as above 75% in data set [1] (Table 23 (down-regulators), dose 10 nM, cardiomyocytes); above 75% in data set [1] (Table 23 (down-regulators), dose 100 nM, cardiomyocytes); above 75% in data set [1] (Table 23 (down-regulators), dose 1000 nM, cardiomyocytes); above 75% in data set [1] (Table 23 (down-regulators), dose 10000 nM, cardiomyocytes); 100% in data set [2] (setting [6]); 100% in data set [2] (setting [7]). Moreover, in data set [2] (setting [8]), the Viability is given as 100%. Moreover, the fold induction at 0.01 µM lay within 1.5 to 1.75 in data set [3] (setting [13]) and 1.25 to 1.5 in data set [4] (setting [14]). Besides, the results for the fold induction at 0.1 µM in data set [3] (setting [13]) and in data set [4] (setting [14]) were 1.5 to 1.75 and 1.25 to 1.5, respectively. Besides, the fold induction at 1 µM in data set [3] (setting [13]) was in the range of 1.25 to 1.5; in data set [4] (setting [14]), 0.75 to 1. The “Number of Gigasomes Produced” value in data set [3] (dose 10 nM) is recorded as 45-55; in data set [3] (dose 100 nM), 45-55; in data set [3] (dose 1000 nM), 35-45; in data set [4] (Table 23 (down-regulators), dose 10 nM), above 150; in data set [4] (Table 23 (down-regulators), dose 100 nM), above 150; in data set [4] (Table 23 (down-regulators), dose 1000 nM), 120-135. In data set [4] (Table 23 (down-regulators), dose 10000 nM), the “Number of Gigasomes Produced” value is 90-105. The fold induction at 10 µM in data set [4] (setting [14]) was 0.5 to 0.75.

For the molecule `Nc1ccccc1NC(=O)c1ccc(CNC(=O)OCc2cccnc2)cc1` [Entinostat, reference compound], the Viability in data set [1] (human, 24 h, 100 nM) is above 75%; in data set [2] (human, 24 h, 10000 nM), above 75%. Besides, the fold induction at 10 µM in data set [3] (setting [13]) was in the range of 1.25 to 1.5. For the same molecule, the “Number of Gigasomes Produced” value is 35-45 in data set [3] (dose 10000 nM) and 300-325 in data set [4] (setting [10]). Also, the fold induction at 0.1 µM in data set [4] (setting [14]) was 1.75 to 2.
